# Assays:
# Type in all cases: physicochemical
# [1] = Passage through membranes and gel permeation chromatography (micelle formation); settings: PEG dye at 10^−4 M and above
# Description: In addition, an advantage emerges in that micelle formation by the PEG is absent. […] Also, the dye moves in the void volume in gel permeation chromatography designed to separate macromolecules from small molecules.
# [2] = Fluorescence intensity and polarization of free dye in buffers and glycerol (solvent sensitivity); settings: for Fluorescence Intensity (I), BBS / Polarization (mp), BBS: borate buffered saline pH 8.0; for Fluorescence Intensity (I), TDx Buffer: intensities comparable only horizontally; for solvent sensitivity of fluorescence intensity: buffer, buffer plus serum, glycerol
# Description: The performance of a fluorophore (fluorescent moiety) can be partly assessed by measurements on the free dye i.e., not in a complete fluorescent probe. Meaningful parameters in this kind of test include fluorescence intensity and polarization/anisotropy which usually are altered when the fluorophore is exposed to different ionic strengths, specific ions or biomolecules such as are present in blood serum. These effects may be thought of as “solvent effects” and may be produced either by changes in the interactions between molecules of the fluorophore to change the state of aggregation or between fluorophore molecules and the components of the solvent (nonspecific binding, NSB).
# In Table 1 the performance of any one dye can be judged by the changes in fluorescence intensity (I), and/or the changes in polarization (mp, milli-polarization units) as one proceeds horizontally across the table. The “perfect” fluorescence label would have the same values for each of these parameters regardless of the solvent composition.
# Abbreviations: mp: […]; TDx Buffer: Commercial buffer used in fluorescence polarization assays; Pc: phthalocyanine; BBS: Borate buffered saline (0.25 M NaCl, 0.0232 M boric acid and 0.00179 M sodium tetraborate. The pH is finally adjusted to 8.0+/−0.05 with 1M NaOH). When serum was tested, 25 μl of whole serum was added to 1 ml of BBS (containing 25 μl of the dye already added). Note that the relative concentrations of the various fluorophores is not known so that comparisons of fluorescence intensities are meaningful only when proceeding in a horizontal direction. An alternative to BBS for manipulating LJB-3 in aqueous solutions is borate buffered KCl (BBKCl) which is made by mixing 33.1 ml of 0.70 M boric acid, 4.0 ml of 0.50 M K2B4O7, 75 ml of 4.0 M KCl and water to make 1 liter: pH ca. 8.1.
# Fluorescence measurements: These were made in a transient state polarization fluorometer (FAST-1, Hyperion, Inc. Miami, Fla.)
# [3] = Near infrared absorbance of dye
Substance,behaviour on membranes (30K daltons) and in gel permeation chromatography [1],"Fluorescence Intensity (I), BBS [2]","Polarization (mp), BBS [2] [mp]","Fluorescence Intensity (I), Glycerol [2]","Polarization (mp), Glycerol [2] [mp]","Polarization (mp), TDx Buffer [2]","Fluorescence Intensity (I), TDx Buffer [2]",solvent sensitivity of fluorescence intensity [2],near infrared absorbance maximum [3] [nm],sensitivity to ionic strength [2]
dihydroxy dicarboxy silicon phthalocyanine sulfonate [LJB-3],behaves as expected for a molecule of its formula weight,741,2.0,1351,199,−.03 mp,1230,"almost the same fluorescence output in buffer, buffer plus serum or glycerol alone",679,–
DiphosphatoSidicarboxyphthalocyanine,–,1078,2.4,454,105,6.7 mp,1069,–,–,–
"Bis-hydroxy (2,3Dicarboxyphthalocyanino) Silicon IV",–,–,–,–,–,–,–,less sensitive to serum and solvent than is the Al compound,–,–
"Hydroxyaluminumphthalocyaninetrisulfonate [Al Pc trisulfonate, reference compound]",–,520,3.4,3155,236,1.7 mp,1108,very solvent-sensitive,–,strong sensitivity to ionic strength

# Source: patent US7371524B2, “Substituted azaporphyrins as fluorescence labels” (priority 2003, dated 2008)
